Experimental data: patent publication US5252581A, “Substituted aminothienopyridines, pharmaceutical composition and use” (Hoechst-Roussel Pharmaceuticals Inc., priority 1992, dated 1993)
Counter-ions that a name gives are not always drawn. Like-named read-outs stand apart in the source and are kept apart here.

Tests used:
[1] = biological target: T1, glycine binding site associated with the N-methyl-D-aspartate (NMDA) receptor complex (Rattus norvegicus, UniProt P35439); assay: Displacement of [^3 H]Glycine Binding; set-up: species or system rat (Wistar)
T1 construct: Cortices of male Wistar rats are dissected over ice; from tissue; host or cells: male Wistar rat cortex, Triton-treated membranes
Protocol: Aliquots of 20 μl to the assay tube will give a final concentration of 10^-3 M.
4. […] Aliquots of 50 μl are added to yield a final assay concentration of 10 nM.
6. […] A stock solution of Triton-X 100, 10% can be prepared and stored in the refrigerator. Dilute 1.0 ml of Triton-X 100 to 10.0 ml with distilled water. On the day of the assay, the tissue homogenate (1:15 dilution) is preincubated with an aliquot of the 10% solution to give a final concentration of 0.04% (v/v).
Three cortices are pooled for one preparation.
1. Prepare assay tubes in triplicate.
2. Following the addition of the tissue, the tubes are incubated for 20 minutes in an ice-bath at 0°-4° C.
3. […] IC50 values for the competing compound are calculated by log-probit analysis of the data.

[2] = biological target: T2, NMDA associated strychnine-insensitive glycine modulatory site (Rattus norvegicus, UniProt P35439); assay: Enhancement of [^3 H]TCP Binding; type: biochemical, rat (Sprague Dawley); details: for Emax: read-out: Enhancement of [^3 H]TCP Binding, % maximal glycine response
T2 construct: prepared from cortical tissue obtained from male Sprague Dawley rats; from tissue; host or cells: male Sprague Dawley rat cortex, crude synaptosomal homogenate

[3] = biological target: T3, serotonin (5HT) uptake (Rattus norvegicus, UniProt P31652); assay: ^3 H-Serotonin Uptake in Rat Whole Brain Synaptosomes; type: biochemical, rat (Wistar)
T3 construct: from tissue; host or cells: male Wistar rat whole brain minus cerebella, crude synaptosomes (S1)
T3 sequence (P31652 whole entry): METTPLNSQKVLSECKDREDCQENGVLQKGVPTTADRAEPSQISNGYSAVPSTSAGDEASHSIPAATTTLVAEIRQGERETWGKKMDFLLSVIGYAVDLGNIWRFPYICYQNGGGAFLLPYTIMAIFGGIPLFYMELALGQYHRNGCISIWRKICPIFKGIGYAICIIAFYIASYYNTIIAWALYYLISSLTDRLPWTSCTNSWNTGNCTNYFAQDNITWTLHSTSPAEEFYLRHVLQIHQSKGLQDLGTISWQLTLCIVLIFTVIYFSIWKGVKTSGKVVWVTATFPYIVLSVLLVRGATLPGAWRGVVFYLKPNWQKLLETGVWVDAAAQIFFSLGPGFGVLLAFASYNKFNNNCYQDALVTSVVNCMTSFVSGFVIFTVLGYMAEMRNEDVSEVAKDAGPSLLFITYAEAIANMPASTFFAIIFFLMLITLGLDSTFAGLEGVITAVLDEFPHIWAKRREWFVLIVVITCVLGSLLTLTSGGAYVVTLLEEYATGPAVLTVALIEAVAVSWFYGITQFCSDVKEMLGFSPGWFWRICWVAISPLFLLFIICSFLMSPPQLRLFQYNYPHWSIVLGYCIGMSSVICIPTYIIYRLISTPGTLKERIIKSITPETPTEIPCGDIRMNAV
Protocol: A. Animals: Male CR Wistar rats (100-125 g).
3. […] This is used to dilute the specific activity of radiolabeled 5HT.
The dilution factor is 0.8.
5. For most assays, a 1 mM solution of the test compound is made up in suitable solvent and serially diluted such that the final concentration in the assay ranges from 2×10^-8 to 2×10^-5 M. Seven concentrations are used for each assay.
Male Wistar rats are decapitated and the brain rapidly removed. […] Homogenization should be done with 4-5 up and down strokes at medium speeds to minimize synaptosome lysis. […] The supernatant (S1) is decanted and is used for uptake experiments.
Tubes are incubated at 37° C. under a 95% O2 /5% CO2 atmosphere for 5 minutes. For each assay, 3 tubes are incubated with 20 μl of vehicle at 0° C. in an ice bath. After incubation all tubes are immediately centrifuged at 4000 g for 10 minutes. The supernatant fluid is aspirated and the pellets dissolved by adding 1 ml of solubilizer (Triton X-100+50% EtOH, 1:4 v/v). The tubes are vigorously vortexed, decanted into scintillation vials, and counted in 10 ml of Liquiscint scintillation counting cocktail. Active uptake is the difference between cpm at 37° C. and 0° C. The percent inhibition at each drug concentration is the mean of three determinations. IC50 values are derived from log-probit analysis.

[4] = biological target: T4, ^3 H-Norepinephrine reuptake (Rattus norvegicus, UniProt Q63380); assay: Inhibition of Biogenic Amine Reuptake, ^3 H-Norepinephrine (WB); type: biochemical
T4 construct: from tissue; host or cells: whole brain (WB), rat inferred
T4 sequence (Q63380 1-617): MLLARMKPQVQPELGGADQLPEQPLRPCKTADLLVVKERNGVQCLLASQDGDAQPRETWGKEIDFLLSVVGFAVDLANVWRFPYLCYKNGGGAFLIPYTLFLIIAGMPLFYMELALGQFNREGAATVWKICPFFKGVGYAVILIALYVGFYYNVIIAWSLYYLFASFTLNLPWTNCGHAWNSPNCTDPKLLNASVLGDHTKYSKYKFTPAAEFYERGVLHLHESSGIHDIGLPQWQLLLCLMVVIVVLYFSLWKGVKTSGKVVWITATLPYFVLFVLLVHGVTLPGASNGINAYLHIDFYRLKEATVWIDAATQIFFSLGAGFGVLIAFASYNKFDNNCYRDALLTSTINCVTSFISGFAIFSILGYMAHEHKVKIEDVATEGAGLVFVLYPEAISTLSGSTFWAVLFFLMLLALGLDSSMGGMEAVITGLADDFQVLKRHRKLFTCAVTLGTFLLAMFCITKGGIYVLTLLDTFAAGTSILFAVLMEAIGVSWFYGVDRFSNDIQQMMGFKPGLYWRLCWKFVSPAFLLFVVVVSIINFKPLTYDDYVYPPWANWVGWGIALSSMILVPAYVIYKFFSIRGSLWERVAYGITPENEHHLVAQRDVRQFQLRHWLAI

[5] = biological target: T5, 5HT3 Receptor (Homo sapiens, UniProt P46098); assay: 5HT3 Receptor Binding Assay
T5 sequence (P46098 24-478): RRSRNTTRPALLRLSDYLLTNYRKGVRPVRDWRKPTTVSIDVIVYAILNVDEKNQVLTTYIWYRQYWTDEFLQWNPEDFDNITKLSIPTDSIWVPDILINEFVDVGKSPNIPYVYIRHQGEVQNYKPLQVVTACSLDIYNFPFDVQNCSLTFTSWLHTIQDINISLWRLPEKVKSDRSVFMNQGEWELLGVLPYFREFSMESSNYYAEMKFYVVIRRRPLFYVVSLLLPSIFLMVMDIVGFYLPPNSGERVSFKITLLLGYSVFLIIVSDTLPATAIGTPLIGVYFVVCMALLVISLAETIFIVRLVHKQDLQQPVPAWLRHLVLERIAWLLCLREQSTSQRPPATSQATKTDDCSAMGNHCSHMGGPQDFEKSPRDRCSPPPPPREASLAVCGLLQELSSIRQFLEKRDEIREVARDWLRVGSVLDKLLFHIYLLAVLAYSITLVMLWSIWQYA

[6] = biological target: T6, ^3 H-Dopamine reuptake (Rattus norvegicus, UniProt P23977); assay: Inhibition of Biogenic Amine Reuptake, ^3 H-Dopamine (Str); type: biochemical; details: str. = striatum
T6 construct: str. = striatum; from tissue; host or cells: striatum, rat inferred
T6 sequence (P23977 whole entry): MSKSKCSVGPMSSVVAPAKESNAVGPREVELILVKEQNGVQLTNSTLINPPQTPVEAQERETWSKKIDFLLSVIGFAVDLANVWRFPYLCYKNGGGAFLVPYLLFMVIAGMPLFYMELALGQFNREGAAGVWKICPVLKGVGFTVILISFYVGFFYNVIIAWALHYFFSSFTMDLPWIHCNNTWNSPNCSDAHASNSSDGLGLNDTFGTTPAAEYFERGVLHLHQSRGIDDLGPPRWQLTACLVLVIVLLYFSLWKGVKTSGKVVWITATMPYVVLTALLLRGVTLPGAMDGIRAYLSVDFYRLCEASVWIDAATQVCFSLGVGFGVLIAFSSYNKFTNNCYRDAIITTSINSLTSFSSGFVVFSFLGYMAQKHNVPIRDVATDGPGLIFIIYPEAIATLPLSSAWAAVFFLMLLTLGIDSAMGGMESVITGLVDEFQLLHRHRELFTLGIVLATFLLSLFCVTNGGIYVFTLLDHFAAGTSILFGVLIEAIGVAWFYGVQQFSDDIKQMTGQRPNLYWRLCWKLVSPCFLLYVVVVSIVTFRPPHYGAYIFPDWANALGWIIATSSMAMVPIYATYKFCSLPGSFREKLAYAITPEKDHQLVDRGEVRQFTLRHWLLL

SMILES: NCC(=O)Nc1csc2ncccc12 [2-Amino-N-(thieno[2,3-b]pyridin-3-yl)acetamide]
- IC50 [1]: 21.8 µM
- EC50 ([2]; rat cortical homogenate, 2.5 nM [^3 H]TCP, 10^-7 M L-glutamic acid): 14.4 µM
- Emax [2]: 39%

SMILES: CCCN(c1ccncc1)c1csc2ncccc12 [3-(Propyl-4-pyridinylamino)-thieno[2,3-b]-pyridine hydrochloride]
- IC50 [3]: 0.071 µM
- IC50 [4]: 0.71 µM
- IC50 [5]: 4.6 µM

SMILES: CCCN(c1ccncc1)c1csc2cnccc12 [3-(Propyl-4-pyridinylamino)thieno[2,3-c]pyridine]
- IC50 ([3]; […]): 0.54 µM

SMILES: CN(C)CCCN1c2ccccc2CCc2ccc(Cl)cc21 [Clomipramine, reference compound]
- IC50 [6]: 31.5 µM
- IC50 [5]: > 10 µM

SMILES: N[C@@H]1CONC1=O [D-cycloserine, reference compound]
- Emax [2]: 80%

SMILES: NCC(=O)O [Glycine, glycine, reference compound]
- Emax [2]: 100%
